Results on 3 compounds are retold here after US20020173447A1, “Cytostatic effects of fatty acid synthase inhibition” (priority 2001, published 2002).

Each structure is given as a SMILES string.

Series [1] deals with cyclin A-associated kinase activity. Kind of series: Immunocomplex-kinase assay after drug exposure of RKO cells, cyclin A. The series is classed as cell-based, human. Particulars: 10 μg/ml, later time points (16 and 24 h). How it is done:
The effect of FAS inhibitors on the activity of cyclin/cdk complexes in RKO cells was determined in a time course analysis. After RKO cells were exposed to FAS inhibitors for the indicated time periods, cyclin A- and cyclin B 1-associated kinase activities were determined by an immunocomplex-kinase assay.
Five×10^6 RKO cells per 100-mm plate were treated with 10 μg/ml cerulenin or C-75 for the indicated time intervals. The control cells received equivalent amounts of DMSO. After drug treatment, the plates were washed once and lysed with immunoprecipitation (IP) buffer (150 mM Tris, pH 7.4, 150 mM NaCl, 1% Triton X-100, 0.5% NP-40, 1 mM ethyleneglyco-bis-tetraacetic acid, 0.2 mM sodium vanadate, and 0.2 mM phenylmethylsulfonyl fluoride). Protein concentration was measured using the BCA Protein Assay Kit (Pierce). One hundred μg of protein from each sample was incubated at 4° C. for 1 h with 1 μg of primary antibody (anti-human cyclin A rabbit polyclonal antibody or anti-human cyclin B 1 monoclonal antibody, Santa Cruz) and then overnight after addition of Protein A or protein G-Sepharose (Santa Cruz). […] Samples were resolved by electrophoresis through 12% SDS-polyacrylamide gels and quantitated on a Storm 820 system (Molecular Dynamics). […]

Series [2] deals with MCF7 breast cancer cells. Kind of series: Alkaline single cell gel electrophoresis (comet assay), MCF7. Type of series: cell-based, human. Particulars: 3 h, doses bracketing 75% survival at 24 h. The text has this:
This assay detects DNA strand breaks, and a spectrum of alkali-labile DNA damage at low levels (Singh, N. P., McCoy, M. T., Tice, R. R., and Schneider, E. L., “A simple Technique for Quantitation of Low Levels of DNA Damage in Individual Cells,” Experimental Cell Research, 175:184-191, (1988); Plappert, U., Raddatz, K., Roth, S., and Fliedner, T. M., “DNA-Damage Detection in Man After Radiation Exposure—the Comet Assay—Its Possible Application for Human Biomonitoring,” Stem Cells, 13 Supplement 1:215-222, (1995)).
Cerulenin- or C-75-treated MCF7 breast carcinoma cells were subjected to alkaline single cell gel electrophoresis (comet assay). MCF7 breast cancer cells were treated with cerulenin or C-75 for 3 h at doses bracketing 75% survival at 24 h. All experiments were repeated three times and duplicate slides from each experiment were prepared and scored. […] Neutralized, dehydrated slides were stained with ethidium bromide (2 ng/ml) and comets scored under a Nikon fluorescence microscope (with TRITC filters) coupled to a KOMET 4.0 software (Kinetic Imaging Ltd).
Olive tail moment indicates electrophoretic mobility of DNA induced by DNA damage. […] One hundred consecutive cells were scored from the middle of each slide, and the means calculated. The final results were expressed as the (mean of the individual means)±(standard deviation of the means). […]

For series [3], the system named is p53. Briefly: Immunoblot of p53 protein in RKO cells. The series is classed as cell-based, human. The note with it: 10 μg/ml, 16 and 24 h. On the procedure: (§1) Accumulation of p53 protein, and the p53-regulated cdk inhibitor p21WAF1/CIP1, were assayed by immunoblotting in a parallel time course after inhibition of FAS (FIG. 4). Cells were treated with cerulenin (10 μg/ml) (A) or C-75 (10 μg/ml) (B) for the stated exposure times, and analyzed by immunoblotting for p53 and p21 protein content, with actin as an internal control. One million cells per 60-mm plate were treated with 10 μg/ml cerulenin or C-75 in duplicate for the indicated time intervals; control cells received equivalent amounts of DMSO. After drug treatment, cells were lysed with 200 μl Laemmli sample buffer and boiled. Ten μl of each lysate per lane was separated by SDS-PAGE, transferred to nitrocellulose, and exposed to antibodies against p53 (Pab1801, Oncogene Research Products), p21 (6B6, PharMingen) or actin (I-19, Santa Cruz), followed by horseradish peroxidase-conjugated goat anti-mouse or rabbit anti-goat antibody (Pierce), enhanced chemiluminescence (Amersham) and autoradiography.
A general note: Immunoblotting shows a protein as a band on a membrane.

Series [4] deals with p21WAF1/CIP1. Kind of series: Immunoblot of p21 protein in RKO cells. The series is classed as cell-based, human. The note with it: 10 μg/ml, 16 and 24 h. How it is done:
as §1

The subject of series [5] is fatty acid synthesis. Particulars: cited from earlier work.
Series [6] has as its system RKO colon carcinoma cells. Kind of series: DNA content of treated RKO cells by flow cytometry (cell cycle distribution). Type of series: cell-based, human. The note with it: 10 μg/ml; for cell cycle distribution (DNA content), early time points: 5 and 8 h. How it is done: Cells were cultured in DMEM with 10% fetal bovine serum (Hyclone). Cells were screened periodically for mycoplasma contamination (Gen-probe). Cerulenin (Sigma) C-75 and TOFA, dissolved in DMSO, were added from 5 mg/ml stock solutions; the final concentration of DMSO in cultures was at or below 0.2%. Cells were exposed to cerulenin or C-75 for the indicated doses and time intervals, then detached from plastic with trypsin for flow cytometry analysis. DNA content was measured by multiparameter flow cytometry using a FACStar^Plus flow cytometer equipped with argon and krypton lasers (Becton Dickinson).

Series [7] has as its system RKO cells. Briefly: BrdU pulse/chase cell cycle progression by laser scanning cytometry. Type of series: cell-based, human. Particulars: 10 μg/ml, chase 4-24 h. How it is done:
A similar experiment measured cell cycle progression by pulse/chase labeling with bromodeoxyuridine (BrdU, FIG. 2). The BrdU-positive S-phase fraction at time zero progresses through the cell cycle at later time points. B. The progress of BrdU pulse-labeled RKO cells through the cell cycle was monitored over 24 h without inhibition of FAS, or during exposure to cerulenin (10 μg/ml) or C-75 (10 μg/ml).
Dual-parameter detection of Bromodeoxyuridine (BrdU) labeling and DNA content was performed using a laser scanning cytometer (Compucyte Corp.). Cell cultures were pulse-labeled for 20 min with 10 μM BrdU, and chased for the indicated times in the absence or presence of drug, then detached from plastic with trypsin, ethanol-fixed and applied to glass slides. Cells were subjected to standard heat-induced epitope retrieval (DAKO) before staining with anti-BrdU antibody (DAKO) and FITC-conjugated goat anti-mouse antibody (CALTAG, DAKO Autostainer™). DNA content was assessed after staining with 0.5% propidium iodide. Data were collected and analyzed using WinCyte software (Compucyte Corp.).
A 20-min exposure of proliferating cells to BrdU labeled the S-phase population at time zero. Chase samples were collected at 4, 8, 16 and 24 h. In control cultures (FIG. 2A), the BrdU-labeled population progressed through G2/M, first reappearing in the G1 population in the 8 h chase sample. […]

The test system of series [8] is RKO-p53 cells. Kind of series: Apoptosis by merocyanine 540 multiparameter flow cytometry. The series is classed as cell-based, human. The text has this:
The effect of p53 function on survival after FAS inhibition was investigated by comparing two pairs of isogenic cell lines with wild-type and altered p53 function. RKO cells were rendered p53-mutant by stable transfection with a dominant-negative mutant p53 gene (RKO-p53); the human breast carcinoma cell line MCF7 was rendered p53-deficient by constitutive expression of the human papilloma virus 16 E6 gene (MCF7-E6) (Fan, S., Smith, M. L., Rivet, D. J., 2nd, Duba, D., Zhan, Q., Kohn, K. W., Fornace, A. J., Jr., and PM, O. C., “Disruption of p53 Function Sensitizes Breast Cancer MCF-7 Cells to Cisplatin and Pentoxifylline,” Cancer Research, 55:1649-1654, (1995)).
Cells were exposed to cerulenin or C-75 for the indicated doses and time intervals, then detached from plastic with trypsin for flow cytometry analysis. Apoptosis was measured by multiparameter flow cytometry using a FACStar^Plus flow cytometer equipped with argon and krypton lasers (Becton Dickinson). […] Merocyanine 540-positive cells were identified using 488-nm excitation from an argon laser and a 575-nm DF26 bandpass filter for collection of events with increased red fluorescence. Data were collected and analyzed using CellQuest software (Becton Dickinson). […]
In general terms: In flow cytometry, cells or beads pass a laser one at a time.

On to `C=C1C(=O)OC(CCCCCCCC)C1C(=O)O` (stereo not shown) [C-75], for which, in series [1], the “kinase activity associated with immunoprecipitated cyclin A complexes, later time points” value was “increased moderately”. The “DNA damage, olive tail moment” value in series [2] was “Neither cerulenin nor C-75 induced olive tail moments over background values”. The p53 protein level result in series [3] is “induced accumulation”. The p21 protein level entry in series [4] is “induced accumulation”. Further, the “inhibitory effects on fatty acid synthesis” value in series [5] was “comparable to those seen with cerulenin”. Moreover, the “cell cycle distribution (DNA content), early time points” value in series [6] was “This effect was characteristic of both cerulenin and C-75 treatment”. Also, the “cell cycle progression of BrdU pulse-labeled cells” value in series [7] was “exhibited a similar response”.

Regarding `CCCCCCCCCCCCCCOc1ccc(C(=O)O)o1` [TOFA, 5-(tetradecyloxy)-2-furoic acid], in series [8] (RKO-p53 cells, TOFA pretreatment), the “effect of pretreatment on FAS inhibitor mediated apoptosis” value is “did rescue FAS inhibitor mediated apoptosis”.

Consider `C/C=C/C/C=C/CCC(=O)[C@H]1O[C@H]1C(N)=O` [cerulenin, (2R, 3S)-2,3-epoxy-4-oxo-7,10-trans,trans-dodecadienamide], for which the “apoptosis (MC540) in p53-deficient cells compared to parent line” value in series [8] (RKO-p53 vs parent RKO, 24 h exposure, 5 or 10 μg/ml) is listed as “large, dose-dependent increase in apoptosis”. In series [1], the “kinase activity associated with immunoprecipitated cyclin A complexes, later time points” value was “increased moderately”. Besides, the “DNA damage, olive tail moment” value in series [2] was “Neither cerulenin nor C-75 induced olive tail moments over background values”. Also, in series [3], the p53 protein level result is listed as “induced accumulation”. In series [4], the p21 protein level result was “induced accumulation”. In series [6], the “cell cycle distribution (DNA content), early time points” value was “redistribution of cells into S phase and G2/M”. The “cell cycle distribution (DNA content), late time points” value in series [6] (16 and 24 h) was “S-phase fraction decreased substantially, with a redistribution of cells into G1 and G2/M”. Moreover, the “cell cycle progression of BrdU pulse-labeled cells” value in series [7] is on record as “substantial delays in cell cycle progression”.
